We go through one compound from patent publication US20120225889A1, “USE OF MACROCYCLIC LACTONE DERIVATIVES FOR THE TREATMENT OF INFLAMMATORY DISORDERS” (PIRAMAL LIFE SCIENCES LIMITED, priority 2010, published 2012).

One assay concerns TNF-α. In words: Screening in LPS stimulated THP-1 cells: TNF-α. It is filed as cell-based. To be noted: Homo sapiens, 24 h, ELISA. The method, then:
IL-6 (BD Biosciences, USA) production by LPS (Escherchia coli 0127:B8, Sigma, USA) in THP-1 cells (ATCC number: TIB202) was designed as in reference, Journal of Immunology, 151, 5631-5638, (1993), the disclosure of which is incorporated by reference for the teaching of the assay.
THP-1 cells were cultured in RPMI 1640 culture medium (Gibco BRL, UK) containing 100 U/mL penicillin and […] streptomycin, (100× solution, Sigma, USA) containing 10% FBS (JRH Biosciences, USA). 25,000 cells were seeded per well in 96-well plate (Nunc, USA). The cells were differentiated with PMA (Sigma, USA, prepared as 100 μg/mL stock in RPMI and was diluted to 5 ng/mL). The test compound (prepared as 20 mM stock in DMSO and diluted with DMSO to achieve the following final concentrations in the assay: 100, 10, 1, 0.1, 0.01, 0.001 and 0.0001 μM) or vehicle (0.5% DMSO) were added to the cells and the cells were incubated for 30 min at 37° C. LPS (Sigma, USA, prepared as 1 mg/mL stock in PBS) was added to achieve a final concentration of 1 μg/mL. Plates were incubated at 37° C. for 24 h at 5% CO2. Supernatants were harvested, and assayed for TNF-α and IL-6 by ELISA as described by the manufacturer (BD Biosciences, USA). Percent inhibition of cytokine release compared to the control was calculated. The IC50 values were calculated by a nonlinear regression method.

Assay [1] has as its system C57BL mice with DSS induced colitis. In words: DSS induced murine model of acute colitis. Type of assay: in vivo. The method, then:
The assay was designed as in references, Laboratory Investigation, 80, 1541, (2000), and Faseb Journal, 19:792, (2005), the disclosure of which is incorporated by reference for the teaching of the assay.
Normal, in-house bred female C57BL mice weighing […], 8-10 weeks old, were used. The animals were housed in individually ventilated cages, three per cage, throughout the experimental period.
Experimental colitis was induced in mice by replacing drinking water with 3% (w/v) DSS (molecular weight 36,000-50,000, MP Biomedicals Inc., USA) solution. This solution was prepared in water, freshly every alternate day and was made available to the experimental animals ad libitum, from day 0 to day 10. A batch of six naïve animals received water instead of DSS during this period.
The animals were weighed every day and the record of body weights was maintained. The suspension of test compound (was prepared at a concentration of 0.05 mg/mL, in 0.5% (w/v) CMC after mixing with minimum quantity of Tween 80 necessary to wet the compound, and was administered orally, daily once to the animals at a volume of 10 mL/kg (dose=0.5 mg/kg). This treatment was initiated on day 6 and continued up to day 10. During this period, DSS control animals and naïve animals received CMC (mixed in the same proportion with 100 μL of Tween 80) at a dose of 10 mL/kg, daily once.
On day 11, the animals were sacrificed, blood was collected in heparinized tubes and the following parameters were studied; • 1. Rectal bleeding/blood in faeces • 2. Fecal consistency • 3. Bleeding in colon • 4. Colon weight • 5. Colon length • 6. Change in body weight on day 11 from that of day 0 • 7. Blood hemoglobin concentration
The data are represented in the following tables (Table 8, Table 9 and Table 10) as quantifiable parameters, descriptive parameters and actual scores. The descriptive parameters are represented by DAI. DAI is a research tool used to quantify the symptoms of the colitic animals. DAI is used in order to define response of the treatment or remission of the disease. In order to achieve this, various factors are studied. […] DAI is the sum of the scores of all factors.
On the last day of compound treatment (compound of example 7, 0.5 mg/kg, p.o., […]) the animals were euthanized humanely, blood samples were collected and the colon was excised. Anterior part of the colon was washed with normal saline to remove fecal material and then fixed in 10% NBF (Neutral buffered formalin). After 10 days of fixation the colon specimens were trimmed and processed overnight using automated tissue processor. Following day the specimens were blocked in paraffin and exposed to cold shock overnight at −18° C. Sections (5μ) were made from cross section of the colonic lumen and stained with routine Hematoxyllin (Sigma, USA) & Eosin (Loba Chemie, India) and mounted permanently. Slides were dried for 24 h and then graded histologically. The results were expressed as histological scores. Histological analysis was based on various parameters like presence of inflammatory cells, erosions, crypt destruction, edema and overall architectural changes graded on a score of 0 to 3, wherein 0 corresponds to absence, 1 corresponds to changes in 25% of the circumference of the colonic lumen, 2 corresponds to up to 50% and 3 corresponds to more than 50% of colonic circumference getting affected. All the scores were summed up to arrive to a total histological score for each section. Two random sections were graded and mean was calculated.

Setting [2] is: day 11, DSS mice, 0.5 mg/kg orally daily once, day 6 to day 10.
[3] abbreviates: score 0-3 (Table 9), DSS mice, 0.5 mg/kg orally daily once, day 6 to day 10.

One may read the IC50 as the point on the concentration scale where inhibition reaches its midpoint. For the compound `C/C=C/C(O)C(C)/C=C/C(=N\O)C(C)C(O)C(C)C1OC(=O)/C(OC)=C/C(C)=C/C(C)C(O)C(CC)C(O)C(C)C/C(C)=C/C=C/C1OC` (stereo not shown) [Compound of example 7, (3Z,5E,13E,15E)-18-((5Z,6E,10E)-3,9-Dihydroxy-5-(hydroxymino)-4,8-dimethyldodeca-6,10-dien-2-yl)-9-ethyl-8,10-dihydroxy-3,17-dimethoxy-5,7,11,13-tetramethyl oxacyclooctadeca-3,5,13,15-tetraen-2-one], 18 µM corresponded to half-maximal inhibition in the assay with TNF-α (IC50). In addition, the “Group mean histological score (colon)” value in assay [1] (0.5 mg/kg, p.o., b.i.d, DSS control 7.50+0.96) was 5.33+0.99. Further, the “histological damage (colon)” value in assay [1] (DSS induced colitic C57BL mice) is listed as “confer protection against histological damage”. The compound also registered a Hbg % in assay [1] (blood hemoglobin, day 11, DSS mice, 0.5 mg/kg orally daily once, day 6 to day 10) of 10.77 ± 0.48 g %. In addition, in assay [1] (setting [2]), the Colon length is 7.33 ± 0.30, the Colon weight mg is reported as 273.8 ± 8.93 mg and the “Colon weight mg per cm” value was 37.6 ± 1.8 mg per cm. Moreover, in assay [1] (day 11 from day 0, DSS mice, 0.5 mg/kg orally daily once, day 6 to day 10), the “Change in body weight” value is listed as “+0.57 ± 0.28”. Also, the severity of colitis entry in assay [1] (orally 0.5 mg/kg, mice with DSS induced colitis) is recorded as “reduces the severity of colitis”. Besides, in assay [1] (setting [3]), the “Blood in colon score” value is on record as 0.61 ± 0.30, the Fecal consistency score came to 1.0 ± 0.50 and the Rectal bleeding score came to 0.18 ± 0.15. In addition, in assay [1] (sum of the scores of all features, DSS mice, 0.5 mg/kg orally daily once, day 6 to day 10), the Disease activity index is 1.67 ± 0.47.
